ChEMBL document CHEMBL4800729 (2021)

Assays:
[1] = molecular target: Dual specificity protein kinase CLK3 (Homo sapiens) (UniProt P49761); assay: CLK3(h) Millipore kinase panel; details: Compound concentration 1.0 uM
[2] = molecular target: Serine/threonine-protein kinase ULK3 (Homo sapiens) (UniProt Q6PHR2); assay: ULK3(h) Millipore kinase panel; details: Compound concentration 1.0 uM
[3] = molecular target: Prostaglandin G/H synthase 1 (Homo sapiens) (UniProt P23219); assay: Cyclooxygenase COX-1 Eurofins-Panlabs enzyme assay; set-up: substrate with concentration; details: Compound concentration 10.0 uM
[4] = molecular target: D(1B) dopamine receptor (Homo sapiens) (UniProt P21918); details: Compound concentration 10.0 uM
[5] = molecular target: Beta-1 adrenergic receptor (Homo sapiens) (UniProt P08588); details: Compound concentration 10.0 uM
Chain of Beta-1 adrenergic receptor (Homo sapiens) (P08588 whole entry, looked up): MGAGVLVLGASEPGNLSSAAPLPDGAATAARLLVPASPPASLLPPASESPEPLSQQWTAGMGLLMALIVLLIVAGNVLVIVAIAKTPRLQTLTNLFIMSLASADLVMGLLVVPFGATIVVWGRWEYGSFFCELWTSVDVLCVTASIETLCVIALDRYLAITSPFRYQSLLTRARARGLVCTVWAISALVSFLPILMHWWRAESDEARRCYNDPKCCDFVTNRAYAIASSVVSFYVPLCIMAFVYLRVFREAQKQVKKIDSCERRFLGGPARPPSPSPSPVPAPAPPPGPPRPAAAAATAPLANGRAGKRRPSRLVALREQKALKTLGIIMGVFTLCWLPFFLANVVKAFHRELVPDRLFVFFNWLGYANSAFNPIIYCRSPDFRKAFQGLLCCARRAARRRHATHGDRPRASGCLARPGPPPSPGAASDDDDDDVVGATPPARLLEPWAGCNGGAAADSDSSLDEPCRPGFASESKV

[6] = molecular target: Beta-1 adrenergic receptor (Homo sapiens) (UniProt P08588); details: Compound concentration 10.0 uM; remark: listed apart in the source
[7] = molecular target: Rho-associated protein kinase 1 (Homo sapiens) (UniProt Q13464); assay: ROCK-I(h) Millipore kinase panel; details: Compound concentration 1.0 uM
[8] = molecular target: CDK17/Cyclin-Y (Homo sapiens) (UniProt Q00537+Q8ND76); assay: CDK17/cyclinY(h) Millipore kinase panel; type: protein-complex assay; details: Compound concentration 1.0 uM
[9] = molecular target: Serine/threonine-protein kinase Nek3 (Homo sapiens) (UniProt P51956); assay: NEK3(h) Millipore kinase panel; details: Compound concentration 1.0 uM
[10] = molecular target: Casein kinase I isoform delta (Homo sapiens) (UniProt P48730); assay: CK1delta(h) Millipore kinase panel; details: Compound concentration 1.0 uM
[11] = molecular target: Mitogen-activated protein kinase 1 (Homo sapiens) (UniProt P28482); assay: MAPK1(h) Millipore kinase panel; details: Compound concentration 1.0 uM
Chain of Mitogen-activated protein kinase 1 (Homo sapiens) (P28482 whole entry): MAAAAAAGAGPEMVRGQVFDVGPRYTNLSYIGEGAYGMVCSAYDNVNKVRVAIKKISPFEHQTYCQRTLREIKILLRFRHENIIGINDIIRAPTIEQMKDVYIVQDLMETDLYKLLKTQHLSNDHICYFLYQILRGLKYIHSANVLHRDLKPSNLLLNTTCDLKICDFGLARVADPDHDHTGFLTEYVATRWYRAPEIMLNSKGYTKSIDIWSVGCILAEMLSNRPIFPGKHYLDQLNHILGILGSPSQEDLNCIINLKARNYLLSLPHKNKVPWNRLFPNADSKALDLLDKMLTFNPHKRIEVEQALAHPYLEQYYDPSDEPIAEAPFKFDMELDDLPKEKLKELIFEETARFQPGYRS

[12] = molecular target: Mitogen-activated protein kinase 13 (Homo sapiens) (UniProt O15264); assay: SAPK4(h) Millipore kinase panel; details: Compound concentration 1.0 uM
[13] = molecular target: Death-associated protein kinase 2 (Homo sapiens) (UniProt Q9UIK4); assay: DAPK2(h) Millipore kinase panel; details: Compound concentration 1.0 uM
[14] = molecular target: 5-hydroxytryptamine receptor 1B (Homo sapiens, UniProt P28222); details: Compound concentration 10.0 uM
Chain of 5-hydroxytryptamine receptor 1B (P28222 whole entry): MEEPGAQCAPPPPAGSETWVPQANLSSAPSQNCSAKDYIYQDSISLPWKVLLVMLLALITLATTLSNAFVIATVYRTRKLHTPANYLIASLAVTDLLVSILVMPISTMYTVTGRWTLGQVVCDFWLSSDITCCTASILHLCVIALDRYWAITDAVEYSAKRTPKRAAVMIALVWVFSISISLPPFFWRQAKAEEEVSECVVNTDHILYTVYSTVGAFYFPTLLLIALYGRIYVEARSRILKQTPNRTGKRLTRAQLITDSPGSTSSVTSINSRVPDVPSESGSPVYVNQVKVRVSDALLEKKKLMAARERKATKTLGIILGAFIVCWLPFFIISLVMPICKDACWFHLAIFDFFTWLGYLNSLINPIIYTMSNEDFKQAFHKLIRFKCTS

[15] = molecular target: [Pyruvate dehydrogenase (acetyl-transferring)] kinase isozyme 4, mitochondrial (Homo sapiens) (UniProt Q16654); assay: PDHK4(h) Millipore kinase panel; details: Compound concentration 1.0 uM
[16] = molecular target: Serine/threonine-protein kinase TAO1 (Homo sapiens) (UniProt Q7L7X3); assay: TAO1(h) Millipore kinase panel; details: Compound concentration 1.0 uM
[17] = molecular target: Serine/threonine-protein kinase tousled-like 1 (Homo sapiens) (UniProt Q9UKI8); assay: TLK1(h) Millipore kinase panel; details: Compound concentration 1.0 uM
[18] = molecular target: Serine/threonine-protein kinase Nek2 (Homo sapiens) (UniProt P51955); assay: NEK2(h) Millipore kinase panel; details: Compound concentration 1.0 uM
[19] = molecular target: Insulin receptor (Homo sapiens) (UniProt P06213); assay: IR(h) Millipore kinase panel; details: Compound concentration 1.0 uM
[20] = molecular target: B2 bradykinin receptor (Homo sapiens) (UniProt P30411); details: Compound concentration 10.0 uM
Chain of B2 bradykinin receptor (Homo sapiens) (P30411 whole entry): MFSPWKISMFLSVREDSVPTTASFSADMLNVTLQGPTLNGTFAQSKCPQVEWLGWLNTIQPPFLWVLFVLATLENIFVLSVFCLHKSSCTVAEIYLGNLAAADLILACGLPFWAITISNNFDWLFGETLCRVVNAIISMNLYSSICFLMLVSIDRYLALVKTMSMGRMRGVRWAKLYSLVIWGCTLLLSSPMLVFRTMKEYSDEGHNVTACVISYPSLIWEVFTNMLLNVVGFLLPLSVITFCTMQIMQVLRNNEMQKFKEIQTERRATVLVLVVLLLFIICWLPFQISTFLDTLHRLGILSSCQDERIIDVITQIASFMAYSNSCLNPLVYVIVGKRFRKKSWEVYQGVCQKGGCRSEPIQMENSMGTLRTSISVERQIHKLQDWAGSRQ

[21] = molecular target: Purinergic P2Y (Rattus norvegicus) (UniProt O35811+Q9EPX4+P49651+Q63371+P41232+O35881+Q6GUG4); assay: Inhibition of Purinergic P2Y at compound concentration of 10.0 uM in the Eurofins-Panlabs radioligand binding assay (Eurofins_assay_268820); type: protein assay; set-up: ligand concentration 0.1 nM; details: Compound concentration 10.0 uM
[22] = molecular target: D(2) dopamine receptor (Homo sapiens) (UniProt P14416); details: Compound concentration 10.0 uM
Chain of D(2) dopamine receptor (Homo sapiens) (P14416 whole entry): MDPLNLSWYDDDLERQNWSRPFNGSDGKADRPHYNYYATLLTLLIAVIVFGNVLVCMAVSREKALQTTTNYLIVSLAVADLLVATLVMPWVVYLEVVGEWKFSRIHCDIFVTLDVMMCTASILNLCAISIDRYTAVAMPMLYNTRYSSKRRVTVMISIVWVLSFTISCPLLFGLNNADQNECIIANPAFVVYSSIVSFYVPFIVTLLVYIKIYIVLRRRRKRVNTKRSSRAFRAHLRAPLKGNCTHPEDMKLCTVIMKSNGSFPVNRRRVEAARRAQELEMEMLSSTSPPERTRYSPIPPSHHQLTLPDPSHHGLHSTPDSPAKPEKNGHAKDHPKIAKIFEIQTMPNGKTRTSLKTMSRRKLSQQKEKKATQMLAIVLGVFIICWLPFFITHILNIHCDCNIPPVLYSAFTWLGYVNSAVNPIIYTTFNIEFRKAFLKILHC

[23] = molecular target: Adenosine receptor A1 (Homo sapiens) (UniProt P30542); details: Compound concentration 10.0 uM
[24] = molecular target: Rho-associated protein kinase 2 (Homo sapiens) (UniProt O75116); assay: ROCK-II(h) Millipore kinase panel; details: Compound concentration 1.0 uM
[25] = molecular target: Proto-oncogene tyrosine-protein kinase receptor Ret (Homo sapiens) (UniProt P07949); assay: Ret(h) Millipore kinase panel; details: Compound concentration 1.0 uM
Homo sapiens = organism: Homo sapiens; assay: CDK9/cyclinT1(h) Millipore kinase panel; details: Compound concentration 1.0 uM
[26] = molecular target: 5-hydroxytryptamine receptor 5A (Homo sapiens) (UniProt P47898); details: Compound concentration 10.0 uM
Chain of 5-hydroxytryptamine receptor 5A (Homo sapiens) (P47898 whole entry): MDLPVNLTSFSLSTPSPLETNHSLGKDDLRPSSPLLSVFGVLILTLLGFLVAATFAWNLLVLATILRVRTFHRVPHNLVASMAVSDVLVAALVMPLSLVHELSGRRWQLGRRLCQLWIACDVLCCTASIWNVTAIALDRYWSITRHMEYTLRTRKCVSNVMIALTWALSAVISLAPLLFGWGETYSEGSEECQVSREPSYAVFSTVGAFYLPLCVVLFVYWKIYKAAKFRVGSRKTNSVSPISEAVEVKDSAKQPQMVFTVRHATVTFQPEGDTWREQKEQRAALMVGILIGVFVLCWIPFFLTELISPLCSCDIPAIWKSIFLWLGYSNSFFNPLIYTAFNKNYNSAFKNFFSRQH

[27] = molecular target: 5-hydroxytryptamine receptor 3A (Homo sapiens) (UniProt P46098); details: Compound concentration 10.0 uM
[28] = molecular target: Inhibitor of nuclear factor kappa-B kinase subunit epsilon (Homo sapiens) (UniProt Q14164); assay: IKKepsilon(h Millipore kinase panel; details: Compound concentration 1.0 uM
Chain of Inhibitor of nuclear factor kappa-B kinase subunit epsilon (Homo sapiens) (Q14164 whole entry): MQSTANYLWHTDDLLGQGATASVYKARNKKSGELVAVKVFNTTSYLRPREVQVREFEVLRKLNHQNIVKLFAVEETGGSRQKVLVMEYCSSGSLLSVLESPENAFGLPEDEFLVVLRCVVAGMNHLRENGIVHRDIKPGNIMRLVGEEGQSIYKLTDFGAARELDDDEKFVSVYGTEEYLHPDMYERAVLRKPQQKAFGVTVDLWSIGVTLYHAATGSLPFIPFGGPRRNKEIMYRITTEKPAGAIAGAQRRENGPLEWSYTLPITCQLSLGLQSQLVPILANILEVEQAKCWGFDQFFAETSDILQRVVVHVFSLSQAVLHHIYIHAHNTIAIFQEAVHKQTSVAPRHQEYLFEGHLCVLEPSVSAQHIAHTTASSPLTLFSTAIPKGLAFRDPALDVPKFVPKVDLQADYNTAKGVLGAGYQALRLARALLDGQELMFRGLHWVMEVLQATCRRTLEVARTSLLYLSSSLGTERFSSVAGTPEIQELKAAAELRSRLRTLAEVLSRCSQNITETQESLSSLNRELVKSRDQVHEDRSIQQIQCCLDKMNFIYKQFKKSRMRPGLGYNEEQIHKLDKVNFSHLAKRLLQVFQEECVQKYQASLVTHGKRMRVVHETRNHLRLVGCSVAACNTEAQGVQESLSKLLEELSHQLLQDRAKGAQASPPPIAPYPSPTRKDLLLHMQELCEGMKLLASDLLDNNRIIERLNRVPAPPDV

[29] = molecular target: Kappa-type opioid receptor (Homo sapiens) (UniProt P41145); details: Compound concentration 10.0 uM
[30] = molecular target: Ephrin type-A receptor 1 (Homo sapiens) (UniProt P21709); assay: EphA1(h) Millipore kinase panel; details: Compound concentration 1.0 uM
[31] = molecular target: Homeodomain-interacting protein kinase 4 (Homo sapiens) (UniProt Q8NE63); assay: HIPK4(h) Millipore kinase panel; details: Compound concentration 1.0 uM
Chain of Homeodomain-interacting protein kinase 4 (Homo sapiens) (Q8NE63 whole entry): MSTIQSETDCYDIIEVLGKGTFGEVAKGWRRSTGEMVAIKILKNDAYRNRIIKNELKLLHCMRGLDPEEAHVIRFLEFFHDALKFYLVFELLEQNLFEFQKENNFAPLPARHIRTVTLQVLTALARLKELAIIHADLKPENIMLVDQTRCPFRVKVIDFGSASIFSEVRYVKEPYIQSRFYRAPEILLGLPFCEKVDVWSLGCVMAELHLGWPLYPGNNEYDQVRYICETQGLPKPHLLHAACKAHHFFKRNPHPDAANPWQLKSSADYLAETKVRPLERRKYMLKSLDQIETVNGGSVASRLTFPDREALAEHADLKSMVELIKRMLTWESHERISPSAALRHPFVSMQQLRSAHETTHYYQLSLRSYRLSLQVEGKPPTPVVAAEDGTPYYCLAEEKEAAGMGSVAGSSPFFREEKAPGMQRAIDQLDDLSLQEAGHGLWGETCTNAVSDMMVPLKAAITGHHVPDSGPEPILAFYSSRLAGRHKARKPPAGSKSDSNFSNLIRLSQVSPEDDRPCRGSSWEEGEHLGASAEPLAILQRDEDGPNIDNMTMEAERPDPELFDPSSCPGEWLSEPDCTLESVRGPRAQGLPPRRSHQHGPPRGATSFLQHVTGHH

[32] = molecular target: Protein kinase C beta type (Homo sapiens) (UniProt P05771); assay: PKCbetaII(h) Millipore kinase panel; details: Compound concentration 1.0 uM
[33] = molecular target: cAMP-dependent protein kinase catalytic subunit PRKX (Homo sapiens) (UniProt P51817); assay: PrKX(h) Millipore kinase panel; details: Compound concentration 1.0 uM
[34] = molecular target: Cyclin-dependent kinase 5/CDK5 activator 1 (Homo sapiens) (UniProt Q00535+Q15078); assay: CDK5/p25(h) Millipore kinase panel; type: protein-complex assay; details: Compound concentration 1.0 uM
[35] = molecular target: Beta-3 adrenergic receptor (Homo sapiens) (UniProt P13945); details: Compound concentration 10.0 uM
[36] = molecular target: Ribosomal protein S6 kinase alpha-1 (Homo sapiens) (UniProt Q15418); assay: Rsk1(h) Millipore kinase panel; details: Compound concentration 1.0 uM
[37] = molecular target: Sodium-dependent serotonin transporter (Homo sapiens) (UniProt P31645); details: Compound concentration 10.0 uM
[38] = molecular target: Serine/threonine-protein kinase SIK3 (Homo sapiens) (UniProt Q9Y2K2); assay: SIK3(h) Millipore kinase panel; details: Compound concentration 1.0 uM
[39] = molecular target: Dual specificity tyrosine-phosphorylation-regulated kinase 2 (Homo sapiens) (UniProt Q92630); assay: DYRK2(h) Millipore kinase panel; details: Compound concentration 1.0 uM
Chain of Dual specificity tyrosine-phosphorylation-regulated kinase 2 (Homo sapiens) (Q92630 whole entry): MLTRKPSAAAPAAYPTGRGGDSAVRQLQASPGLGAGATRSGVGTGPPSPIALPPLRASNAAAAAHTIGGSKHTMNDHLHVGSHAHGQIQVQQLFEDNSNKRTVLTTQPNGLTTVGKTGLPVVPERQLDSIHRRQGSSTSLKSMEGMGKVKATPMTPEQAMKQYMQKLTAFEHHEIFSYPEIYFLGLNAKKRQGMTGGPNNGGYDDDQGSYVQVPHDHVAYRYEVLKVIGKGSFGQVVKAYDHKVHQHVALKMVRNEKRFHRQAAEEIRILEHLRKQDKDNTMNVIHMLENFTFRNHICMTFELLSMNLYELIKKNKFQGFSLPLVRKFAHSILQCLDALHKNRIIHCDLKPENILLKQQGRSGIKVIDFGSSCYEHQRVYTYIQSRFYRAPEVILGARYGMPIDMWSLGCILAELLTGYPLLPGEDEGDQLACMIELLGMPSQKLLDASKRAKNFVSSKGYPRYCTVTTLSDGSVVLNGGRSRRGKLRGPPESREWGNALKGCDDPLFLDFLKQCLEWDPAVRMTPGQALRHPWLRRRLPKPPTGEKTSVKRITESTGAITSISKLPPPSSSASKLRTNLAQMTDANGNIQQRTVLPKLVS

[40] = molecular target: Serine/threonine-protein kinase PAK 3 (Homo sapiens) (UniProt O75914); assay: PAK3(h) Millipore kinase panel; details: Compound concentration 1.0 uM
[41] = molecular target: Casein kinase I isoform gamma-1 (Homo sapiens) (UniProt Q9HCP0); assay: CK1gamma1(h) Millipore kinase panel; details: Compound concentration 1.0 uM
[42] = molecular target: [Pyruvate dehydrogenase (acetyl-transferring)] kinase isozyme 2, mitochondrial (Homo sapiens) (UniProt Q15119); assay: PDHK2(h) Millipore kinase panel; details: Compound concentration 1.0 uM

Measured: inhibition

Chain of Dual specificity protein kinase CLK3 (Homo sapiens) (P49761 whole entry, looked up): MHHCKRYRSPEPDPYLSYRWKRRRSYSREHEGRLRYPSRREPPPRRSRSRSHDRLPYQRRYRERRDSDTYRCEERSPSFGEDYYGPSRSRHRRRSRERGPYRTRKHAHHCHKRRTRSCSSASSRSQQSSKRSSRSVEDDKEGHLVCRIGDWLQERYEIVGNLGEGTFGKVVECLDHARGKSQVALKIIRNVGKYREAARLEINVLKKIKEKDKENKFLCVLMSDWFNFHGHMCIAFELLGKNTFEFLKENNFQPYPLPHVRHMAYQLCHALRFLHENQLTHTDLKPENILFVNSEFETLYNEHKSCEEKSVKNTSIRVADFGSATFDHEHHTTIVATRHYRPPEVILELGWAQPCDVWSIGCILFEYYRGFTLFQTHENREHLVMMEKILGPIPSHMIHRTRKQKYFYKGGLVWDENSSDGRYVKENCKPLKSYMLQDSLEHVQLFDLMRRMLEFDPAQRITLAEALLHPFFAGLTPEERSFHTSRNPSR

CC[C@@H](Nc1c(C#N)c(-c2ccc(-c3cccc(C)c3F)cc2)nc2cnccc12)C(=O)O [BAY-091]
inactive: [1] 2.84% | [2] 0.33% | [3] 19% | [4] 15.8% | [5] 2% | [6] 4.09% | [7] -2.77% | [8] 0.09% | [9] 8.41% | [10] 9.07% | [11] 6.43% | [12] -3.58% | [13] -6.79% | [14] 11.3% | [15] 9.88% | [16] 1.92% | [17] -0.87% | [18] 15.9% | [19] -2.92% | [20] 1% | [21] 31% | [22] 10% | [23] 13% | [24] -0.6% | [25] -3.56% | Homo sapiens 11.8% | [26] 14.8% | [27] 7.39% | [28] 10.2% | [29] -2% | [30] 9.2% | [31] 15.7% | [32] -1.59% | [33] 2.66% | [34] 6.65% | [35] 16% | [36] -6.03% | [37] 10% | [38] 5.14% | [39] 19.1% | [40] 4.13% | [41] 8.17% | [42] 12.4%
